pIC50: −log10 of the molar value.

One experiment relates to bone resorption (parietal bone). Kind of experiment: Bone resorption-inhibitory activity (45Ca release from newborn mouse parietal bone, hPTH (1-34) stimulated, method of Raisz). It counts as cell-based, ICR mouse. To be noted: 5 μM, Table 20, average of four pairs, read-out: bone resorption-inhibitory action, % against control. The text has this:
The method for determining the bone resorption-inhibitory activity of the Compound (I) and the results are shown in the following.
Bone resorption-inhibitory activity
The determination of the bone resorption-inhibitory activity basically followed the method of Raisz [J. Clin. Invest., vol. 44, pp. 103-116 (1965)].
A 1-2 days old new born ICR mouse was intraperitoneally administered with 1.5μ Ci ^45 Ca (CaCl2 solution of isotope of calcium) and parietal bone was asceptically removed the next day. The parietal bone was split into two along the central sature line and one of them was used as a control and the other was used for the experiment. The bone was preincubated in 0.5 ml of a BGJb medium (Fitton-Jackson modification, GIBCO Laboratories, U.S.A.) added with the test compound to a concentration of 5 μM or 20 μM and bovine serum albumin (1 mg/ml) at 37° C. for 2 days, and further incubated in the aforementioned medium containing 50 nM hPTH (1-34) for 3 days. After the incubation, the radioactivity of ^45 Ca in the medium and in the bone was measured and the ratio (%) of ^45 Ca released from the bone into the medium was calculated. [formula]
Using the bone obtained from the same mouse and treated in the same manner without the test compound as a control, the ratio (%) against the control was calculated according to the following equation. [formula]
The average of these values obtained from four pairs from each group was calculated.
With `CCc1cc2c(s1)-n1c(C3CCCCC3)nnc1C(NC(=O)Nc1ccccc1OC)N=C2c1ccccc1Cl` (stereo not drawn) [compound 100], the inhibition at 5 µM worked out at 55.5%.

With `Cc1cccc(NC(=O)NC2N=C(c3ccccc3Cl)c3c(sc(C)c3C)-n3c(C)nnc32)c1` (stereo not drawn) [compound 83], the inhibition at 5 µM amounted to 35%.

As for `CCc1cc2c(s1)-n1c(C)nnc1C(NC(=O)Nc1cccc(C)c1)N=C2c1ccc(C)cc1` (stereo not drawn) [compound 86], the inhibition at 5 µM worked out at 30.3%.

For the compound `CCc1cc2c(s1)-n1c(C3CCCCC3)nnc1C(NC(=O)Nc1cccc(C)c1)N=C2c1ccccc1Cl` (stereo not drawn) [compound 84], the inhibition at 5 µM came to 65.3%.

`CCCCc1cc2c(s1)-n1c(C)nnc1C(NC(=O)Nc1cccc(C)c1)N=C2c1ccc(Cl)cc1` (stereo not drawn) [compound 98]: the inhibition at 5 µM was 35%.

Take `CCc1cc2c(s1)-n1c(C)nnc1C(NC(=O)Nc1ccccc1)N=C2c1ccc(Cl)cc1` (stereo not drawn) [compound 87]: the inhibition at 5 µM is 31.6%.

In the case of `CCc1cc2c(s1)-n1c(C)nnc1C(NC(=S)Nc1ccccc1)N=C2c1ccccc1Cl` (stereo not drawn) [compound 93], the inhibition at 5 µM is 63.5%.

With `CCCCCCc1cc2c(s1)-n1c(C)nnc1C(NC(=O)Nc1cccc(C)c1)N=C2c1ccc(Cl)cc1` (stereo not drawn) [compound 78], the inhibition at 5 µM amounted to 45.4%.

Staying with this experiment, now noted: 20 μM, Table 20, average of four pairs, read-out: bone resorption-inhibitory action, % against control.
`CCCCCCCCCCCc1nnc2n1-c1sc(CC)cc1C(c1ccccc1)OC2` (stereo not drawn) [compound 304]: the inhibition at 20 µM turned out to be 28.6%.

As for `CCc1cc2c(s1)-n1c(CCCc3ccc(CC(C)C)cc3)nnc1COC2c1ccc(Cl)cc1` (stereo not drawn) [compound 330], the inhibition at 20 µM was 35.6%.

As for `CCCC1N=C(c2ccc(Cl)cc2)c2cc(CCc3ccc(CC(C)C)cc3)sc2-n2c(C)nnc21` (stereo not drawn) [compound 42], the inhibition at 20 µM was determined as 16.9%.

In the case of `CCc1cc2c(s1)-n1c(C)nnc1C(NC(=O)c1ccccc1)N=C2c1ccccc1Cl` (stereo not drawn) [compound 50], the inhibition at 20 µM is 26.4%.

Consider `Cc1nnc2n1-c1sc(CCc3ccc(CC(C)C)cc3)cc1C(c1ccccc1Cl)=NC2c1ccccc1` (stereo not drawn) [compound 44], for which the inhibition at 20 µM worked out at 15.7%.

In the case of `Cc1nnc2n1-c1sc(CCc3ccc(CC(C)C)cc3)cc1C(c1ccccc1Cl)=NC2Cc1ccccc1` (stereo not drawn) [compound 46], the inhibition at 20 µM stood at 21.1%.

Regarding `CC(C)Cc1ccc(CCc2cc3c(s2)N(CCN(C)C)C(=O)CN=C3c2ccccc2Cl)cc1` [compound 64], the inhibition at 20 µM came to 25.2%.

For `CC(C)Cc1ccc(CCc2cc3c(s2)-n2c(nnc2C(C)(C)C)C(C)N=C3c2ccccc2Cl)cc1` (stereo not drawn) [compound 34], the inhibition at 20 µM is 15.5%.

Take `Cc1nnc2n1-c1sc(CCCc3ccc(CC(C)C)cc3)cc1C(c1ccccc1Cl)=NC2` [compound 11]: the inhibition at 20 µM came to 23.4%.

As for `CCc1cc2c(s1)-n1c(C)nnc1C(NC(=O)Cc1ccccc1)N=C2c1ccccc1Cl` (stereo not drawn) [compound 255], the inhibition at 20 µM was 54.3%.

Consider `CCc1cc2c(s1)-n1c(C)nnc1C(NC(=O)Nc1cccc(C)c1)N=C2c1ccccc1Cl` (stereo not drawn) [compound 51], for which the inhibition at 20 µM is 26.9%.

As for `Cc1nnc2n1-c1sc(CCc3ccc(CC(C)C)cc3)cc1C(c1ccccc1Cl)OC2` (stereo not drawn) [compound 324], the inhibition at 20 µM was found to be 33.1%.

Take `CCCCCCCCCCCc1nnc2n1-c1sc(CC)cc1C(c1ccc(C)cc1)OC2` (stereo not drawn) [compound 357]: the inhibition at 20 µM is 24.7%.

In the case of `CCCCCCCCc1ccc(CCc2cc3c(s2)-n2c(C)nnc2CN=C3c2ccccc2Cl)cc1` [compound 29], the inhibition at 20 µM is 16.4%.

For the compound `Cc1nnc2n1-c1sc3c(c1C(c1ccccc1Cl)=NC2C)CC(C(=O)N1CCOCC1)C3` (stereo not drawn) [compound 54], the inhibition at 20 µM was determined as 31.7%.

As for `Cc1nnc2n1-c1sc(CCc3ccc(CC(C)C)cc3)cc1C(c1ccc(OCCN(C)C)cc1)=NC2` [compound 32], the inhibition at 20 µM amounted to 16%.

In the case of `Cc1nnc2n1-c1sc(CCC(=O)N3CCN(C(c4ccccc4)c4ccccc4)CC3)cc1C(c1ccccc1Cl)=NC2` [compound 36], the inhibition at 20 µM stood at 21.9%.

For the compound `CCc1cc2c(s1)-n1c(C)nnc1C(NS(=O)(=O)c1ccc(C)cc1)N=C2c1ccc(Cl)cc1` (stereo not drawn) [compound 254], the inhibition at 20 µM is 32.5%.

As to `CCCCCCCCCCCc1nnc2n1-c1sc(CC)cc1C(c1ccc(O)cc1)OC2` (stereo not drawn) [compound 302], the inhibition at 20 µM is 22.4%.

Turning to `CCCCCCCCCCCc1nnc2n1-c1sc(CC)cc1C(c1ccc(OCCN(C)C)cc1)OC2` (stereo not drawn) [compound 354], the inhibition at 20 µM was 23.2%.

The experiment is the same for the next values; noted with them: 20 μM, Table 21, average of four pairs, read-out: bone resorption-inhibitory action, % against control.
In the case of `CCCCCCCCCCCc1nnc2n1-c1ccccc1C(c1ccc(Cl)cc1)OC2` (stereo not drawn) [compound 516], the inhibition at 20 µM came to 22.4%.

Staying with this experiment, now noted: read-out: IC50 (figures in parentheses), bone resorption-inhibitory action.
What is called pIC50 is −log10 of the IC50, conventionally taken in molar units. With `Cc1nnc2n1-c1sc(CCc3ccc(CC(C)C)cc3)cc1C(c1ccccc1Cl)=NC2C` (stereo not drawn) [compound 9], the pIC50 is 5.12.

The experiment is the same for the next values; noted with them: read-out: bone resorption-inhibitory action, % against control.
Consider `Cc1nnc2n1-c1sc(CCc3ccc(CC(C)C)cc3)cc1C(c1ccccc1F)=NC2` [compound 30], for which the inhibition at 20 µM turned out to be 20.6%.

With `Cc1nnc2n1-c1sc(CCc3ccc(CC(C)C)cc3)cc1C(c1ccccc1Cl)=NC2C` (stereo not drawn) [compound 9], the inhibition at 20 µM was 23.7%.

For `Clc1ccc2c(c1)C(c1ccccc1Cl)=NCc1nccn1-2` [compound 70], the inhibition at 20 µM is 50.3%.

As to `Cc1nnc2n1-c1sc(CCCN3CCOCC3)cc1C(c1ccccc1Cl)=NC2C` (stereo not drawn) [compound 40], the inhibition at 20 µM is 32.8%.

For `Cc1nnc2n1-c1ccc(Cl)cc1C(c1ccccc1Cl)=NC2` [compound 68], the inhibition at 20 µM amounted to 57.5%.

For the compound `Cc1nnc2n1-c1sc(CCc3ccc(CC(C)C)cc3)cc1C(c1ccc(O)cc1)=NC2` [compound 31], the inhibition at 20 µM was 26.4%.

With `CCCCCCCCCCCc1nnc2n1-c1ccccc1C(c1ccc(Cl)cc1)=NC2` [compound 513], the inhibition at 20 µM turned out to be 43.3%.

As for `CC(C)Cc1ccc(CCc2cc3c(s2)-n2cnnc2CN=C3c2ccccc2Cl)cc1` [compound 6], the inhibition at 20 µM came to 30.2%.

Take `CCc1cc2c(s1)-n1ccnc1CN=C2c1ccccc1Cl` [compound 67]: the inhibition at 20 µM worked out at 55.3%.

As to `Cc1ccc(S(=O)(=O)OCC2N=C(c3ccccc3)c3ccccc3-n3c(C)nnc32)cc1` (stereo not drawn) [compound 518], the inhibition at 20 µM was determined as 45.4%.

Regarding `Cc1cccc(NC(=O)NC2N=C(c3ccc(Cl)cc3)c3ccccc3-n3c(C)nnc32)c1` (stereo not drawn) [compound 503], the inhibition at 20 µM stood at 30.4%.

Turning to `Cc1nnc2n1-c1ccc(Cl)cc1C(c1ccccc1)=NC2` [compound 69], the inhibition at 20 µM worked out at 21.9%.

Turning to `CCCCCCCCc1cc2c(s1)N(CCN(C)C)C(=O)CN=C2c1ccccc1Cl` [compound 62], the inhibition at 20 µM worked out at 27.4%.

`CCCCCCCCCCc1ccc2c(c1)-n1c(C)nnc1C(C)N=C2c1ccccc1` (stereo not drawn) [compound 520]: the inhibition at 20 µM was 22.5%.

`Cc1nnc2n1-c1ccccc1C(c1ccc(Cl)cc1)=NC2NS(=O)(=O)Cc1ccccc1` (stereo not drawn) [compound 507]: the inhibition at 20 µM came to 35.6%.

In the case of `Cc1nnc2n1-c1ccccc1C(c1ccc(Cl)cc1)=NC2NC(=O)C(=O)Nc1ccccc1` (stereo not drawn) [compound 530], the inhibition at 20 µM stood at 28.2%.

As for `Cc1nnc2n1-c1ccccc1C(c1ccccc1)=NC2COC(=O)Cc1ccccc1` (stereo not drawn) [compound 511], the inhibition at 20 µM amounted to 37.7%.

As for `COc1ccccc1NC(=O)OCC1N=C(c2ccccc2)c2ccccc2-n2c(C)nnc21` (stereo not drawn) [compound 509], the inhibition at 20 µM worked out at 35%.

`CCOC(=O)C1(NC(=O)Nc2cccc(C)c2)N=C(c2ccc(Cl)cc2)c2ccccc2-n2c(C)nnc21` (stereo not drawn) [compound 501]: the inhibition at 20 µM came out at 29.5%.

In the case of `Cc1nnc2n1-c1ccccc1C(c1ccc(Cl)cc1)=NC2NC(=O)OCc1ccccc1` (stereo not drawn) [compound 504], the inhibition at 20 µM is 24.6%.

With `CCCCCCc1cc2c(s1)-n1c(C)nnc1CN=C2c1ccccc1C` [compound 22], the inhibition at 20 µM came to 23.4%.

`Cc1cccc(N2C(=O)NC3(N=C(c4ccc(Cl)cc4)c4ccccc4-n4c(C)nnc43)C2=O)c1` (stereo not drawn) [compound 531]: the inhibition at 20 µM amounted to 34.4%.

With `CCCCCCCCCCc1cc2c(s1)-n1c(C)nnc1CN=C2c1ccccc1OC` [compound 25], the inhibition at 20 µM was determined as 17.5%.

For the compound `Cc1cccc(NC(=O)NCC2N=C(c3ccc(Cl)cc3)c3ccccc3-n3c(C)nnc32)c1` (stereo not drawn) [compound 506], the inhibition at 20 µM is 32.5%.

`Cc1nnc2n1-c1sc(CCc3ccc(CC(C)C)cc3)cc1C(c1ccccc1)=NC2` [compound 1]: the inhibition at 20 µM was 30.7%.

Take `COc1ccccc1NC(=O)NC1N=C(c2ccc(Cl)cc2)c2ccccc2-n2c(C)nnc21` (stereo not drawn) [compound 502]: the inhibition at 20 µM was found to be 31.8%.

On to `Cc1nnc2n1-c1sc(CCC(=O)N3CCOCC3)cc1C(c1ccccc1Cl)=NC2` [compound 19], for which the inhibition at 20 µM was found to be 61.7%.

Turning to `Cc1nnc2n1-c1ccccc1C(c1ccc(Cl)cc1)=NC2NC(=O)Nc1cccnc1` (stereo not drawn) [compound 523], the inhibition at 20 µM amounted to 26.7%.

For `Cc1nnc2n1-c1sc(Cc3ccc(CC(C)C)cc3)cc1C(c1ccccc1Cl)=NC2` [compound 28], the inhibition at 20 µM stood at 16.5%.

Regarding `CCc1cc2c(s1)-n1c(noc1=O)CN=C2c1ccccc1Cl` [compound 66], the inhibition at 20 µM stood at 56.3%.

Take `CCCCCCCCCCCCc1cc2c(s1)-n1c(C)nnc1CN=C2c1ccccc1Cl` [compound 27]: the inhibition at 20 µM was determined as 17%.

With `CCCc1nnc2n1-c1sc(CCc3ccc(CC(C)C)cc3)cc1C(c1ccccc1Cl)=NC2` [compound 35], the inhibition at 20 µM was found to be 20%.

As for `Cc1nnc2n1-c1sc(CCC(=O)N3CCOCC3)cc1C(c1ccccc1Cl)=NC2C` (stereo not drawn) [compound 38], the inhibition at 20 µM came to 46%.
